Key:
Experiment in all cases: Greenhouse postemergence herbicidal effect, visual injury after 20-22 d
Assay type in all cases: in vivo
[1] = test system: barnyardgrass (ECHCG, Echinochloa crus-galli); settings: Table 4
Text: (§1) Seeds of the desired test plant species were planted in a 90:10% v/v (volume/volume) mixture of PRO-MIX® BX (Premier Tech Horticulture, Quakertown, Pa., USA) and PROFILE® GREENS GRADE™ (Profile Products LLC, Buffalo Grove, Ill., USA) planting mixture, which typically has a pH of 5.2 to 6.2 and an organic matter content of at least 50 percent, in plastic pots with a surface area of 103.2 square centimeters (cm^2). In some aspects, to ensure good germination and healthy plants, a fungicide treatment and/or other chemical or physical treatment was applied. The plants were grown for 7-36 days (d) in a greenhouse with an approximate 14-hour (h) photoperiod which was maintained at about 23° C. during the day and 22° C. during the night. Nutrients and water were added on a regular basis and supplemental lighting was provided with overhead metal halide 1000-Watt lamps as necessary. The plants were employed for testing when they reached the second or third true leaf stage.
(§2) Emulsifiable concentrates of each of each pyridine carboxylate herbicide (Compound A or Compound B) were prepared at 100 grams acid equivalent per liter (g ae/L). The emulsifiable concentrates also included a safener, cloquintocet-mexyl, at 120 grams active ingredient per liter (g ai/L). An aliquot of each emulsifiable concentrate was placed in a 25 mL glass vial and diluted with an aqueous mixture of 1.25% (v/v) ACTIROB® B esterified rapeseed oil (Bayer Crop Science, Research Triangle Park, N.C., USA) or MSO® Concentrate with LECI-TECH® methylated soybean oil (Loveland Products, Loveland, Colo., USA) to obtain concentrated stock solutions at the highest application rate for each herbicide, based upon a 12 milliliter (mL) application volume at a rate of 187 liters per hectare (L/ha). The concentrated stock solutions were further diluted with an aqueous mixture of 1.25% v/v ACTIROB® B or MSO® Concentrate with LECI-TECH® to obtain stock solutions at reduced application rates for each herbicide. Spray solutions of the herbicide combinations (Compound A or Compound B plus PDS inhibitor herbicide) were prepared by adding weighed amounts or aliquots of the PDS inhibitor herbicide to the stock solutions of Compound A or Compound B to form 12-mL spray solutions in two- or three-way combinations.
(§3) The spray solutions were applied to the plant material with an overhead Mandel track sprayer equipped with 8002E nozzles calibrated to deliver 187 L/ha over an application area of 0.503 square meters (m^2) at a spray height of 18 inches ([…] centimeters (cm)) above the average plant canopy. Control plants were sprayed in the same manner with the solvent blank. All pyridine carboxylate herbicide (component a) application rates are given as “g ae/ha” and all PDS inhibitor herbicide (component b) application rates are given as “g ai/ha.”
(§4) The treated plants and control plants were placed in a greenhouse as described above and watered by sub-irrigation to prevent wash-off of the test compounds. After 20-22 d, the condition of the test plants as compared with that of the control plants was determined visually and scored on a scale of 0 to 100 percent where 0 corresponds to no injury and 100 corresponds to complete kill.

[2] = test system: broad-leaf dock (RUMOB, Rumex obtusifolius); settings: Table 4
Text: as §1, §2, §3, §4

[3] = test system: pigweed (AMARE, Amaranthus retroflexus); settings: for visual injury: Table 1
Text: as §1, §2, §3, §4

[4] = test system: wild chamomile (MATCH, Matricaria chamomilla); settings: for visual injury: Table 1
Text: as §1, §2, §3, §4

[5] = test system: kochia (KCHSC, Kochia scoparia); settings: for visual injury: Table 1
Text: as §1, §2, §3, §4

[6] = test system: wild pansy (VIOTR, Viola tricolor)
Text: as §1, §2, §3, §4

[7] = test system: common sunflower (HELAN, Helianthus annuus)
Text: as §1, §2, §3, §4

[8] = test system: common rice (ORYSA, Oryza sativa); settings: Table 4
Text: as §1, §2, §3, §4

[9] = test system: winter rape (BRSNW, Brassica napus); settings: for visual injury: Table 1
Text: as §1, §2, §3, §4

[10] = test system: soybean (GLXMA=Glycine max); settings: Table 4
Text: as §1, §2, §3, §4

[11] = test system: giant foxtail (SETFA, Setaria faberi); settings: Table 4
Text: as §1, §2, §3, §4

[12] = test system: ivyleaf morningglory (IPOHE, Ipomoea hederacea)
Text: as §1, §2, §3, §4

N#CCOC(=O)c1nc(-c2ccc3cc[nH]c3c2F)c(F)c(N)c1Cl [Compound A, cyanomethyl 4-amino-3-chloro-5-fluoro-6-(7-fluoro-1H-indol-6-yl)pyridine-2-carboxylate]
visual injury Obs ([1]; 7.5 g/ha): 73% | visual injury Obs ([1]; 10 g/ha): 78% | visual injury Obs ([2]; 7.5 g/ha): 8% | visual injury Obs ([2]; 10 g/ha): 10% | visual injury ([3]; 7.5 g/ha): 78% | visual injury Obs ([3]; 7.5 g/ha, Table 3): 70% | visual injury Obs ([3]; 7.5 g/ha, Table 5): 80% | visual injury Obs ([3]; 7.5 g/ha, Table 6): 80% | visual injury Obs ([3]; 7.5 g/ha, Table 7): 70% | visual injury Obs ([3]; 7.5 g/ha, Table 8): 78% | visual injury ([3]; 10 g/ha): 73% | visual injury Obs ([3]; 10 g/ha, Table 3): 98% | visual injury Obs ([3]; 10 g/ha, Table 5): 85% | visual injury Obs ([3]; 10 g/ha, Table 6): 85% | visual injury Obs ([3]; 10 g/ha, Table 7): 90% | visual injury Obs ([3]; 10 g/ha, Table 8): 78% | visual injury Obs ([3]; 15 g/ha, Table 8): 83% | visual injury ([4]; 7.5 g/ha): 20% | visual injury Obs ([4]; 7.5 g/ha, Table 2): 13% | visual injury Obs ([4]; 7.5 g/ha, Table 3): 0% | visual injury Obs ([4]; 7.5 g/ha, Table 7): 18% | visual injury Obs ([4]; 7.5 g/ha, Table 8): 8% | visual injury ([4]; 10 g/ha): 30% | visual injury Obs ([4]; 10 g/ha, Table 2): 15% | visual injury Obs ([4]; 10 g/ha, Table 3): 33% | visual injury Obs ([4]; 10 g/ha, Table 7): 30% | visual injury Obs ([4]; 10 g/ha, Table 8): 15% | visual injury Obs ([4]; 15 g/ha, Table 8): 10% | visual injury ([5]; 7.5 g/ha): 63% | visual injury Obs ([5]; 7.5 g/ha, Table 2): 50% | visual injury Obs ([5]; 7.5 g/ha, Table 5): 63% | visual injury Obs ([5]; 7.5 g/ha, Table 6): 63% | visual injury Obs ([5]; 7.5 g/ha, Table 7): 65% | visual injury Obs ([5]; 7.5 g/ha, Table 8): 70% | visual injury ([5]; 10 g/ha): 63% | visual injury Obs ([5]; 10 g/ha, Table 2): 58% | visual injury Obs ([5]; 10 g/ha, Table 5): 65% | visual injury Obs ([5]; 10 g/ha, Table 6): 65% | visual injury Obs ([5]; 10 g/ha, Table 7): 70% | visual injury Obs ([5]; 10 g/ha, Table 8): 70% | visual injury Obs ([5]; 15 g/ha, Table 8): 70% | visual injury Obs ([6]; 7.5 g/ha, Table 4): 10% | visual injury Obs ([6]; 7.5 g/ha, Table 5): 3% | visual injury Obs ([6]; 7.5 g/ha, Table 6): 3% | visual injury Obs ([6]; 10 g/ha, Table 4): 18% | visual injury Obs ([6]; 10 g/ha, Table 5): 3% | visual injury Obs ([6]; 10 g/ha, Table 6): 3% | visual injury Obs ([7]; 7.5 g/ha, Table 5): 83% | visual injury Obs ([7]; 7.5 g/ha, Table 6): 83% | visual injury Obs ([7]; 10 g/ha, Table 5): 88% | visual injury Obs ([7]; 10 g/ha, Table 6): 88% | visual injury Obs ([8]; 7.5 g/ha): 13% | visual injury Obs ([8]; 10 g/ha): 10% | visual injury ([9]; 7.5 g/ha): 35% | visual injury Obs ([9]; 7.5 g/ha, Table 7): 63% | visual injury Obs ([9]; 7.5 g/ha, Table 8): 60% | visual injury ([9]; 10 g/ha): 43% | visual injury Obs ([9]; 10 g/ha, Table 7): 68% | visual injury Obs ([9]; 10 g/ha, Table 8): 60% | visual injury Obs ([9]; 15 g/ha, Table 8): 75% | visual injury Obs ([10]; 7.5 g/ha): 93% | visual injury Obs ([10]; 10 g/ha): 95% | visual injury Obs ([11]; 7.5 g/ha): 70% | visual injury Obs ([11]; 10 g/ha): 70% | visual injury Obs ([12]; 7.5 g/ha, Table 4): 3% | visual injury Obs ([12]; 7.5 g/ha, Table 5): 5% | visual injury Obs ([12]; 7.5 g/ha, Table 6): 5% | visual injury Obs ([12]; 10 g/ha, Table 4): 8% | visual injury Obs ([12]; 10 g/ha, Table 5): 0% | visual injury Obs ([12]; 10 g/ha, Table 6): 0%

Reference: patent US20210392889A1, “COMPOSITIONS COMPRISING PYRIDINE CARBOXYLATE HERBICIDES WITH PDS INHIBITOR HERBICIDES” (Corteva Agriscience LLC, priority 2018, published 2021)
